Measurements reported in US20110201564A1, “SUBSTITUTED 7-SULFANYLMETHYL, 7-SULFINYLMETHYL AND 7-SULFONYLMETHYL INDOLES AND USE THEREOF” (BAYER SCHERING PHARMA AKTIENGESELLSCHAFT, priority 2008, published 2011).
Like-named read-outs stand apart in the source and are kept apart here.

Columns and labels:
[1] = target: T1, human mineralocorticoid receptor (MR) (Homo sapiens, UniProt P08235); test: Cellular in vitro assay, GAL4-MR chimera luciferase reporter in CHO K1 cells (inhibitory MR activity); assay type: cell-based; conditions: antagonism vs aldosterone; CHO K1 GAL4-MR LBD luciferase reporter
T1 construct: expressed in transfected cells; host or cells: CHO K1
T1 sequence (P08235 734-984 limits assumed): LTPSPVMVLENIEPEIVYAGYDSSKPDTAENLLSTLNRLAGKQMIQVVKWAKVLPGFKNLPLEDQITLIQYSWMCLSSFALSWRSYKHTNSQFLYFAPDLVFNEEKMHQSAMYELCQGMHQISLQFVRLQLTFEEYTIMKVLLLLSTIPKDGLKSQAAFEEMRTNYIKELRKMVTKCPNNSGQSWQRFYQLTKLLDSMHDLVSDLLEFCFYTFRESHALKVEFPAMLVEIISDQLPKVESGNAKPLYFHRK
Method in brief: (§1)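 CHO K1 cells stably expressing GAL4 DNA-binding domain fused to human MR, PR or AR ligand-binding domains plus GAL4-driven firefly luciferase; compounds added 10–30 min before agonist (aldosterone, progesterone or dihydrotestosterone), luciferase read after 5–6 h; IC50 from sigmoidal concentration–response curves.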

[2] = target: T2, CYP3A4 (Homo sapiens, UniProt P08684); test: Assay to assess irreversible CYP3A4 inhibition (mechanism-based inhibition) in human liver microsomes; assay type: in vitro ADME; conditions: CYP3A4 activity as 6β-hydroxytestosterone formation, 2-20 μM
T2 construct: using human liver microsomes (pool from various individuals); from tissue; host or cells: human liver microsomes (pool from various individuals)
T2 sequence (P08684 whole entry): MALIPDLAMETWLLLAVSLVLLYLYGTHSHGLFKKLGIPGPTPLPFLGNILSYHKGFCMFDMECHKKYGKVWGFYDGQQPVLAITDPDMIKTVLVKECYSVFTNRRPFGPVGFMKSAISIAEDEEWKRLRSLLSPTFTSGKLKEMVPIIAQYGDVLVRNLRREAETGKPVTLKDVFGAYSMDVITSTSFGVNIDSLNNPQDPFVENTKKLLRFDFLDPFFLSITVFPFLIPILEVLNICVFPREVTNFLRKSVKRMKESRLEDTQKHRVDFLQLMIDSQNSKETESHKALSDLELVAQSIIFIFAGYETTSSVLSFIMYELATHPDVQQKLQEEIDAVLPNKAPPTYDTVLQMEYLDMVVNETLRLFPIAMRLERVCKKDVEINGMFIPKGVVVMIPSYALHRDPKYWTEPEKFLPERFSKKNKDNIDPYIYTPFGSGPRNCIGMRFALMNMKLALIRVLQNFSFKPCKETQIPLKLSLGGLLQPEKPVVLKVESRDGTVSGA
Text: 8. Assay to Assess Irreversible CYP3A4 Inhibition
Cytochrom P450 enzyme inhibition, especially irreversible enzyme inhibition, also referred to as mechanism-based inhibition (MBI), is an unwanted metabolic property of a substance which may, on concurrent administration of other medicaments, lead to considerable drug interactions. Criteria for the presence of an irreversible inhibition are a time-, concentration- and cofactor- (nicotinamide adenine dinucleotide phosphate, NADPH) dependent inhibition. To this end, the compounds of the invention are incubated in vitro with human liver microsomes, the influence on the CYP3A4 activity and the metabolic degradation of the novel active ingredient is determined, and the prototypical parameters kinact, Ki and the partition ratio r are ascertained therefrom.
The compounds of the invention are incubated with concentrations of 2-20 μM. To this end, stock solutions of the active ingredients with a concentration of 0.2-2 mM are prepared in acetonitrile and then pipetted with a 1:100 dilution into the incubation mixture. The liver microsomes are incubated in 50 mM potassium phosphate buffer (pH 7.4) with and without NADPH-generating system consisting of 1 mM NADP^+, 5 mM glucose 6-phosphate and 1 unit of glucose 6-phosphate dehydrogenase, at 37° C. After defined preincubation times of 0-50 min, aliquots are removed from these mixtures, diluted 1:25 in a new incubation, and incubated in the presence of testosterone and new NADPH-generating system again for 20 min. These incubation mixtures are stopped with acetonitrile (final concentration about 30% v/v), and the protein is removed by centrifugation at about 15 000×g. The samples stopped in this way are either analyzed directly or stored at −20° C. until analyzed.
The analysis takes place by high performance liquid chromatography with mass spectrometry detection (LC-MS). The formation of 6β-hydroxytestosterone as measure of CYP3A4 activity, and the test substance still remaining is quantified. The parameters kinact, Ki and the partition ratio r are determined therefrom so as to assess the novel active ingredients in relation to MBI.

[3] = target: T3, androgen receptor (AR) (Homo sapiens, UniProt P10275); test: Cellular in vitro assay, GAL4-AR chimera luciferase reporter in CHO K1 cells (selectivity); assay type: cell-based; conditions: antagonism vs dihydrotestosterone; CHO K1 GAL4-AR LBD luciferase reporter
T3 construct: of the androgen receptor (AR, amino acids 667-919); expressed in transfected cells; host or cells: CHO K1
T3 sequence (P10275 668-920): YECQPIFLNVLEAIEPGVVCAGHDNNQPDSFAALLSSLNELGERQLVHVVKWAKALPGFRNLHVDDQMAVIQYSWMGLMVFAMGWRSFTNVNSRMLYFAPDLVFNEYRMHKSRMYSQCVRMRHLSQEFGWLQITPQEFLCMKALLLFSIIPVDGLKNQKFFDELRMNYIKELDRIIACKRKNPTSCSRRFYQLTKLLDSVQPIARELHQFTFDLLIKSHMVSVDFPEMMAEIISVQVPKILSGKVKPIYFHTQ
Method in brief: as §1

[4] = target: T4, progesterone receptor (PR) (Homo sapiens, UniProt P06401); test: Cellular in vitro assay, GAL4-PR chimera luciferase reporter in CHO K1 cells (selectivity); assay type: cell-based; conditions: antagonism vs progesterone; CHO K1 GAL4-PR LBD luciferase reporter
T4 construct: of the progesterone receptor (PR, amino acids 680-933); expressed in transfected cells; host or cells: CHO K1
T4 sequence (P06401 680-933): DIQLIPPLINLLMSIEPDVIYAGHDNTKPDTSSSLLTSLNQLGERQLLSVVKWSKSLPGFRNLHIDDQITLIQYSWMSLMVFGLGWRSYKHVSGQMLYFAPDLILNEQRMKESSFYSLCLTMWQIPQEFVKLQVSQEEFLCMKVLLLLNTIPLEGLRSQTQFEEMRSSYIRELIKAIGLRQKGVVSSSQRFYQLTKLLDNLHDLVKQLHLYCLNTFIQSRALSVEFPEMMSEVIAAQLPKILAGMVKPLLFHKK
Method in brief: as §1

[5] = target: T2, CYP3A4; test: CYP inhibition assay with human liver microsomes; assay type: in vitro ADME
Text: Inhibitory properties of an active ingredient on the cytochromes P450 (CYP) of the human body may entail extensive clinical effects (drug interactions) because most of the prescribed medicaments are degraded (metabolized) by these enzymes. The ones involved in this are in particular the CYP isoenzymes of the 1A and 2C families, CYP2D6 and, with a proportion of almost 50%, CYP3A4. In order to preclude or minimize these possible drug interactions (Drug-Drug Interactions, DDI), the ability of substances to be able to inhibit CYP1A2, CYP2C8, CYP2C9, CYP2D6 and CYP3A4 in humans is investigated using human liver microsomes (pool from various individuals). This takes place by measuring CYP isoform-specific metabolites formed from standard substrates such as, for example, phenacetin, amodiaquin, diclofenac, dextromethorphan, midazolam and testosterone. The inhibitory effects are investigated at six different concentrations of the test compounds (1.5, 3.1, 6.3, 12.5, 25 and 50 μM as maximum concentration or 0.6, 1.3, 2.5, 5, 10 and 20 μM as maximum concentration), comparing with the extent of the CYP isoform-specific metabolite formation of the standard substrates in the absence of the test compounds, and calculating the corresponding IC50 values. CYP isoform-specific standard inhibitors such as, for example, fluvoxamine, quercetin, sulfaphenazole, fluoxetine and ketoconazole serve as control of the results obtained. In order to obtain indications of the possible mechanism-based inhibitors (MBI) on CYP3A4, the human liver microsomes are incubated in the presence of the inhibitor to be investigated for 30 minutes before the addition of midazolam or testosterone as standard substrates of CYP3A4. A reduction in the IC50 obtained by comparison with the mixture without preincubation serves as an indicator of a mechanism-based inhibition. Mibefradil serves as positive control.
The incubations of the standard substrates with human liver microsomes (23-233 μg/mL) in the presence of the test compound (as potential inhibitor) are carried out in 96-well plates in a workstation (Tecan, Genesis, Crailsheim, Germany) at 37° C. The incubation times are 15-20 minutes. The test compounds are preferably dissolved in acetonitrile (1.0 or 2.5 mM stock solution). The 96-well plates are produced by sequential addition of a stock solution of NADP+, EDTA, glucose 6-phosphate and glucose-6-phosphate dehydrogenase in phosphate buffer (pH 7.4), the test compound, and a solution of standard substrate and human liver microsomes in phosphate buffer (pH 7.4). The total volume is 200 μl. The corresponding control incubations with and without standard inhibitor also take place on the 96-well plate. The incubations are stopped after the respective incubation time by adding 100 μl of acetonitrile in which there is a suitable internal standard. Precipitated proteins are removed by centrifugation (3000 rpm, 10 minutes, 10° C.). The resulting supernatants of the respective plates are combined on one plate and analyzed by LC-MS/MS. The […] values are generated from the resulting measured data and used to assess the inhibitory potential of the test compound.

**Q.** With `CS(=O)(=O)Cc1cccc2c(C(CCC#N)c3ccc(C(F)(F)F)cc3)c[nH]c12` (single isomer, unassigned) [Example 56-1, 4-{7-[(Methylsulfonyl)methyl]-1H-indol-3-yl}-4-[4-(trifluoromethyl)phenyl]butanonitrile] as the compound, how does the IC50 [1] read?
**A.** 0.09 µM

**Q.** What about the Partition ratio r [2] of the same compound?
**A.** 100

**Q.** What about the IC50 [3] of the same compound?
**A.** 5.67 µM

**Q.** What about the IC50 [4] of the same compound?
**A.** 4.07 µM

**Q.** How did the IC50 [1] turn out when `CS(=O)(=O)Cc1cc(F)cc2c(C(c3ccc(Cl)cc3)C3CC3C#N)c[nH]c12` (single isomer, unassigned) [Example 277-1-1, 2-[(4-Chlorophenyl){5-fluoro-7-[(methylsulfonyl)methyl]-1H-indol-3-yl}methyl]cyclopropane-carbonitrile] was run?
**A.** 0.008 µM

**Q.** What about the Partition ratio r [2] of the same compound?
**A.** >200

**Q.** What about the IC50 [3] of the same compound?
**A.** 3.9 µM

**Q.** And the IC50 [4]?
**A.** 10 µM

**Q.** Which IC50 [1] does the source give for `CS(=O)(=O)Cc1cc(F)cc2c(C(c3ccc(F)cc3Cl)C3CC3C#N)c[nH]c12` (single isomer, unassigned) [Example 266-1, 2-[(2-Chloro-4-fluorophenyl){5-fluoro-7-[(methylsulfonyl)methyl]-1H-indol-3-yl}methyl]cyclopropanecarbonitrile] here?
**A.** 0.007 µM

**Q.** What about the Partition ratio r [2] of the same compound?
**A.** >200

**Q.** What about the IC50 [3] of the same compound?
**A.** 1.29 µM

**Q.** And the IC50 [4]?
**A.** 3 µM

**Q.** How did the Partition ratio r [2] turn out when `CS(=O)(=O)Cc1cccc2c(C(c3ccc(F)cc3)c3ccc(Cl)cc3F)c[nH]c12` (single isomer, unassigned) [Example 118-1, 3-[(4-Chloro-2-fluorophenyl)(4-fluorophenyl)methyl]-7-[(methylsulfonyl)methyl]-1H-indole] was run?
**A.** 250

**Q.** What about the IC50 ([5]; 30 min preincubation with test compound before substrate, read-out: CYP 3A4 Preincubation, 30 min.) of the same compound?
**A.** 11.2 µM

**Q.** And the IC50 ([5]; without preincubation, read-out: CYP 3A4 Coincubation)?
**A.** > 20 µM
